Source: US6538019B1, “Functional emulsions” (Japan as represented by Director of National Food Research …, priority 2000, dated 2003)

Assays:
[1] = cited from earlier work
[2] = Dispersion behavior by small-angle X-ray scattering method (SAXS); format: physicochemical
Text: Further, the dispersion behavior of the polyglycerol oleic acid ester (PG) was examined using a small-angle X-ray scattering method (SAXS). It turned out that the polyglycerol oleic acid ester (PG) in ethanol was a molecular assembly having the radius of inertia of about 7 Å and the polyglycerol oleic acid ester (PG) in triolein was a molecular assembly having the radius of inertia of about 90 Å. As a result, it can be said that the stability of emulsions can be achieved by increasing the ratio of triolein with respect to ethanol.

[3] = Stability of the emulsions examined by a turbidity method; format: physicochemical; settings: addition amount of PG varied within 1 wt %-5 wt %
Text: Next, the addition amount of polyglycerol oleic acid ester (PG) was variously changed within the range of 1 wt %-5 wt % and the stability of the emulsions was examined by a turbidity method.

[4] = Stability of the emulsion (time to phase separation of E/O emulsion); format: physicochemical; settings: concentration of the emulsifying agent 5%; ratio of triolein and ethanol 8:2
Description: First, sunflower seed oil (having the triolein purity 90% or more, as produced by Nippon Lever B. V.) as a continuous phase, 95% ethanol as a dispersed phase, and polyglycerol oleic acid ester (MO750, HLB12.9) as an emulsifying agent (surfactant) were prepared.
Next, polyphenol was dissolved in ethanol. As the polyphenol to be used, catechin, anthocyanin, quercetin can be listed.
Thereafter, the ethanol, to which 1 wt % polyglycerol oleic acid ester (PG) was added, and triolein (sunflower seed oil) were stirred at 3000 rpm for ten minutes with a homogenizer (Polytron: PT3000), thereby attempting the production of an emulsion.
Furthermore, the possibility of using emulsifying agents other than polyglycerol oleic acid ester (PG) was examined. In Table 2, DAO750 indicates decaglycerol decaester, PO500 indicates hexaglycerol pentaester, PO310 indicates tetraglycerol pentaester, MO310 indicates tetraglycerol monoester, MO500 indicates hexaglycerol monoester, and MO750 indicates polyglycerol oleic acid ester.

| Radius of inertia of molecular assembly ([2]; in ethanol) | Radius of inertia of molecular assembly ([2]; in triolein) | Substance | Solubility with respect to water [1] | Change in emulsion stability [3] | Stability of E/O emulsion by emulsifying agent [4] |
| --- | --- | --- | --- | --- | --- |
| – | – | anthocyanin | slightly soluble in water | – | – |
| about 7 Å | about 90 Å | polyglycerol oleic acid ester [MO750] | – | A conspicuous change in emulsion stability was not found | +++ (The sample did not cause the phase separation until five months.) |
